Reference: patent publication US6677310B1, “Ring-expanded nucleosides and nucleotides” (Nabi, priority 1999, dated 2004)
Like-named read-outs stand apart in the source and are kept apart here.

Experiments:
2.2.15 cells = assay: Toxicity in confluent 2.2.15 cells (neutral red dye uptake); assay type: cell-based, human
Procedure: Anti-HBV activity and the toxicity against confluent 2.2.15 cells were determined by the previously described procedure (Korba, B. E., et al. Antivir. Res., 19:55-70, 1992; Korba, B. E., et al. Antivir. Res., 15:217-228, 1991). Briefly, confluent cultures of HBV transfected 2.2.15 cells were maintained on either 96-well or 24-well flat-bottomed tissue culture plates in RPMI 1640 medium with 2% fetal bovine serum (FBS). The cells were treated with test compounds daily for nine consecutive days. […] Cellular toxicity against separate cultures of confluent 2.2.15 cells was measured after treatment with the compounds for nine days under identical culture conditions as those used for the antiviral assay (Korba, B. E., et al. Antivir. Res., 19:55-70, 1992). Uptake of neutral red dye by treated cells was compared with dye uptake by untreated control cells (Korba, B. E., et al. Antivir. Res., 19:55-70, 1992).

U251 = assay: SRB anti-cancer assay, CNS Cancer; assay type: cell-based, human; conditions: 48 h; for CC50: read-out: LC50 (the source's name)
cytomegalovirus (CMV) = assay: Antiviral test against CMV; assay type: cell-based
Procedure: (§1) These compounds were also tested for their effects on HIV (Weislow, O. , et al., J. Natl. Cancer Inst., 81:577-586, 1989), herpes simplex virus (HSV)-1, HSV-2, cytomegalovirus (CMV), Varicella Zoster virus (VZV) and Epstein-Barr virus (EBV) replication (National Institute of Allergy and Infectious Diseases (NIAID), NIH, Bethesda, Md.).

K-562 = assay: SRB anti-cancer assay, Leukemia; assay type: cell-based, human; conditions: K-562 (Leukemia), 48 h; for CC50: read-out: LC50 (the source's name)
Epstein-Barr virus (EBV) = assay: Antiviral test against EBV; assay type: cell-based
Procedure: as §1

[1] = tested on: HBV proteins (HBsAg, HBcAg, HBeAg); assay: HBV protein levels in 2.2.15 cells (semi-quantitative EIA); assay type: cell-based, Hepatitis B virus; conditions: 10 μM, day 9, 2.2.15 cells
BT-549 = assay: SRB anti-cancer assay, Breast Cancer; assay type: cell-based, human; conditions: BT-549 (Breast Cancer), 48 h; for CC50: read-out: LC50 (the source's name)
HOP-92 = assay type: cell-based, human; conditions: HOP-92 (Non-Small Cell Lung Cancer), 48 h; for CC50: read-out: LC50 (the source's name)
HIV = assay: Antiviral test against HIV; assay type: cell-based
Procedure: as §1

HSV-2 = assay: Antiviral test against HSV-2; assay type: cell-based
Procedure: as §1

[2] = tested on: HBV ribonucleic acids (RNA); assay: HBV RNA levels in 2.2.15 cells (blot hybridization); assay type: cell-based, Hepatitis B virus; conditions: 10 μM, day 9, 2.2.15 cells
Procedure: Anti-HBV activity and the toxicity against confluent 2.2.15 cells were determined by the previously described procedure (Korba, B. E., et al. Antivir. Res., 19:55-70, 1992; Korba, B. E., et al. Antivir. Res., 15:217-228, 1991). Briefly, confluent cultures of HBV transfected 2.2.15 cells were maintained on either 96-well or 24-well flat-bottomed tissue culture plates in RPMI 1640 medium with 2% fetal bovine serum (FBS). The cells were treated with test compounds daily for nine consecutive days. The culture media were harvested on day 9 to quantify the amount of virion DNA. On day 10, the cells were lysed to quantify the amount of intracellular HBV replicative intermediates (RI). The quantification of virion DNA and the HBV RI were done by blot hybridization methods (Korba, B. E., et al. Antivir. Res., 19:55-70, 1992; Korba, B. E., et al. Antivir. Res., 15:217-228, 1991). Cellular toxicity against separate cultures of confluent 2.2.15 cells was measured after treatment with the compounds for nine days under identical culture conditions as those used for the antiviral assay (Korba, B. E., et al. Antivir. Res., 19:55-70, 1992). Uptake of neutral red dye by treated cells was compared with dye uptake by untreated control cells (Korba, B. E., et al. Antivir. Res., 19:55-70, 1992).
These compounds were evaluated for their ability to inhibit viral RNA synthesis in 2.2.15 cells. Since HBV uses host cellular RNA polymerase II during the transcription of viral RNA from the covalently closed circular HBV DNA during its replication, any effect on the synthesis of viral RNA by these compounds would mean interference with the cellular RNA polymerase which could lead to unacceptable cellular toxicity.

[3] = tested on: herpes simplex virus (HSV)-1; assay: Antiviral test against HSV-1; assay type: cell-based
Procedure: as §1

SF-539 = assay: SRB anti-cancer assay, CNS Cancer; assay type: cell-based, human; conditions: SF-539 (CNS Cancer), 48 h
MCF7 = assay: SRB anti-cancer assay, Breast Cancer; assay type: cell-based, human; conditions: 48 h; for CC50: read-out: LC50 (the source's name)
LOX IMVI = assay: SRB anti-cancer assay, Melanoma; assay type: cell-based, human; conditions: 48 h; for CC50: read-out: LC50 (the source's name)
IGROV1 = assay: SRB anti-cancer assay, Ovarian Cancer; assay type: cell-based, human; conditions: 48 h; for CC50: read-out: LC50 (the source's name)
SK-MEL-2 = assay: SRB anti-cancer assay, Melanoma; assay type: cell-based, human; conditions: SK-MEL-2 (Melanoma), 48 h
PC-3 = assay: SRB anti-cancer assay, Prostate Cancer; assay type: cell-based, human; conditions: PC-3 (Prostate Cancer), 48 h
HT29 = assay: SRB anti-cancer assay, Colon Cancer; assay type: cell-based, human; conditions: 48 h; for CC50: read-out: LC50 (the source's name)
TK-10 = assay: SRB anti-cancer assay, Renal Cancer; assay type: cell-based, human; conditions: TK-10 (Renal Cancer), 48 h; for CC50: read-out: LC50 (the source's name)
[4] = confluent 2.2.15 cells, 9 days, neutral red dye uptake, read-out: CC50
[5] = read-out: LC50 (the source's name)

With `N=c1[nH]c(=O)c2ncn([C@@H]3O[C@H](CO)[C@@H](O)[C@H]3O)c2c(=O)[nH]1` [Compound 14-1, 6-Imino-6H-1-β-D-ribofuranosyl-4,5,7,8-tetrahydroimidazo[4,5-e][1,3]diazepine-4,8-dione] the CC50 (2.2.15 cells; 2.2.15 cells, Example 13, read-out: CC50 (cellular toxicity)) was 2400 µM, the CC50 (2.2.15 cells; [4]) was 2430 µM and the GI50 (U251) was > 100 µM. For the same compound, the TGI (U251) was >100 µM, the CC50 (U251) was > 100 µM and the “antiviral activity against CMV” value (cytomegalovirus (CMV)) was “no antiviral activity”. The GI50 (K-562) was > 100 µM, the TGI (K-562) was >100 µM and the CC50 (K-562) was > 100 µM. The “antiviral activity against EBV” value (Epstein-Barr virus (EBV)) was “no antiviral activity”, the “HBcAg, percentage of control” value [1] was 75 ± 4% and the “HBeAg, percentage of control” value [1] was 50 ± 5 %. The “HBsAg, percentage of control” value [1] was 67 ± 6%, the GI50 (BT-549) was > 100 µM and the TGI (BT-549) was >100 µM. The CC50 (BT-549) was > 100 µM, the GI50 (HOP-92) was > 100 µM and the TGI (HOP-92) was >100 µM. For the same compound, the CC50 (HOP-92) was > 100 µM, the “antiviral activity against HIV” value (HIV) was “no antiviral activity” and the “antiviral activity against HSV-2” value (HSV-2) was “no antiviral activity”. For the same compound, the “2.1 Kb RNA, percentage of control” value [2] was 96 ± 7%, the “3.6 Kb RNA, percentage of control” value [2] was 89 ± 9% and the “antiviral activity against HSV-1” value [3] was “no antiviral activity”. The GI50 (SF-539) was > 100 µM, the TGI (SF-539) was >100 µM and the CC50 (SF-539; [5]) was > 100 µM.

`N=c1nc(N)c2ncn([C@@H]3O[C@H](COC(=O)c4ccccc4)[C@@H](OC(=O)c4ccccc4)[C@H]3OC(=O)c3ccccc3)c2c(N)n1` [4,8-Diamino-6H-6-imino-1(2′,3′,5′-tri-O-benzoyl-β-D-ribofuranosyl)imidazo[4,5-e][1,3]diazepine] was tested, and the GI50 (MCF7) was 1.47 µM, the TGI (MCF7) was 3.12 µM and the CC50 (MCF7) was 6.61 µM. For the same compound, the GI50 (LOX IMVI) was 3.01 µM, the TGI (LOX IMVI) was >100 µM and the CC50 (LOX IMVI) was > 100 µM. It also gave a GI50 (IGROV1) of 5.13 µM, a TGI (IGROV1) of 20.3 µM and a CC50 (IGROV1) of 66.7 µM. The GI50 (K-562) was 2.74 µM, the TGI (K-562) was >100 µM and the CC50 (K-562) was > 100 µM. For the same compound, the GI50 (SK-MEL-2) was 2.6 µM, the LC50 (SK-MEL-2) was 26.2 µM and the TGI (SK-MEL-2) was 6.87 µM. It also gave a GI50 (PC-3) of 4.46 µM, a TGI (PC-3) of 16.6 µM and a GI50 (HT29) of 2.58 µM. It also gave a TGI (HT29) of 10.3 µM, a CC50 (HT29) of 42.3 µM and a GI50 (TK-10) of 21.3 µM. For the same compound, the TGI (TK-10) was 82.2 µM and the CC50 (TK-10) was > 100 µM.

For `N=c1nc(N)c2ncn([C@@H]3O[C@H](CO)[C@@H](O)[C@H]3O)c2c(N)n1` [Compound 14-2, 4,8-Diamino-6H-6-imino-1-β-D-ribofuranosylimidazo[4,5-e][1,3]diazepine], the GI50 (MCF7) was 5.81 µM, the TGI (MCF7) was 22.3 µM and the CC50 (MCF7) was 63.4 µM. The GI50 (LOX IMVI) was 7.16 µM, the TGI (LOX IMVI) was 21.3 µM and the CC50 (LOX IMVI) was 51.2 µM. The CC50 (2.2.15 cells; [4]) was 501 µM, the GI50 (IGROV1) was 14 µM and the TGI (IGROV1) was 30.5 µM. For the same compound, the CC50 (IGROV1) was 66.3 µM, the GI50 (U251) was 20.1 µM and the TGI (U251) was 45 µM. The CC50 (U251) was > 100 µM, the “antiviral activity against CMV” value (cytomegalovirus (CMV)) was “no antiviral activity” and the “antiviral activity against EBV” value (Epstein-Barr virus (EBV)) was “no antiviral activity”. The “HBcAg, percentage of control” value [1] was 109 ± 6%, the “HBeAg, percentage of control” value [1] was 8 ± 3 % and the “HBsAg, percentage of control” value [1] was 108 ± 18%. The GI50 (BT-549) was 15.6 µM, the TGI (BT-549) was 32.2 µM and the CC50 (BT-549) was 66.4 µM. The GI50 (SK-MEL-2) was 15.4 µM, the LC50 (SK-MEL-2) was 76.9 µM and the TGI (SK-MEL-2) was 34.5 µM. The GI50 (HOP-92) was 19.2 µM, the TGI (HOP-92) was 40 µM and the CC50 (HOP-92) was 83.7 µM. For the same compound, the “antiviral activity against HIV” value (HIV) was “no antiviral activity”, the GI50 (PC-3) was 16.6 µM and the TGI (PC-3) was 44.5 µM. For the same compound, the CC50 (PC-3; [5]) was > 100 µM, the “antiviral activity against HSV-2” value (HSV-2) was “no antiviral activity” and the “2.1 Kb RNA, percentage of control” value [2] was 96 ± 8%. The “3.6 Kb RNA, percentage of control” value [2] was 103 ± 9%, the GI50 (HT29) was 10.4 µM and the TGI (HT29) was 35.7 µM. For the same compound, the CC50 (HT29) was > 100 µM, the GI50 (TK-10) was 15.1 µM and the TGI (TK-10) was 31.2 µM. The CC50 (TK-10) was 64.6 µM and the “antiviral activity against HSV-1” value [3] was “no antiviral activity”.
